Reference: PubChem BioAssay (NCI)
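Cultured in 96-well plates, cells were exposed to test compound for 48 hours across five concentrations. TGI: concentration producing complete growth inhibition.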

Experiments:
Assay in all cases: NCI tumour cell line growth inhibition, 48 h
[1] = system: K-562 leukemia
[2] = system: HCT-15 colon
[3] = system: SF-268 CNS
[4] = system: PC-3 prostate
[5] = system: 786-0 renal
[6] = system: SK-OV-3 ovarian
[7] = system: HOP-92 NSCLC
[8] = system: SK-MEL-28 melanoma
[9] = system: MALME-3M melanoma
[10] = system: MDA-MB-435
[11] = system: MOLT-4 leukemia
[12] = system: NCI-H226 lung
[13] = system: HOP-62 NSCLC
[14] = system: SNB-75 CNS
[15] = system: SK-MEL-2 melanoma
[16] = system: HS 578T breast
[17] = system: NCI-H23 lung

## Cc1ccc(S(=O)(=O)Nn2c(O)c(C#N)c(-c3ccc(N(C)C)cc3)c(C#N)c2=O)cc1
[1]
  TGI: > 50 µM
[2]
  TGI: > 50 µM
[3]
  TGI: > 50 µM
[4]
  TGI: > 50 µM
[5]
  TGI: > 50 µM
[6]
  TGI: 27.4 µM
[7]
  TGI: > 50 µM
[8]
  TGI: > 50 µM
[9]
  TGI: > 50 µM
[10]
  TGI: > 50 µM
[11]
  TGI: > 50 µM
[12]
  TGI: > 50 µM
[13]
  TGI: > 50 µM
[14]
  TGI: > 50 µM
[15]
  TGI: > 50 µM
[16]
  TGI: > 50 µM

## CCOP(=O)(OCC)C(F)(F)Cc1cnc(C)c2c1COC(C)(C)O2
[1]
  TGI: > 10 µM
[2]
  TGI: > 10 µM
[3]
  TGI: > 10 µM
[4]
  TGI: > 10 µM
[5]
  TGI: > 10 µM
[6]
  TGI: > 10 µM
[7]
  TGI: > 10 µM
[8]
  TGI: > 10 µM
[9]
  TGI: > 10 µM
[10]
  TGI: > 10 µM
[11]
  TGI: > 10 µM
[12]
  TGI: > 10 µM
[13]
  TGI: > 10 µM
[14]
  TGI: > 10 µM
[15]
  TGI: > 10 µM
[17]
  TGI: > 10 µM
[16]
  TGI: > 10 µM

## CC(C)N1[C@@H]2CCCC[C@H]2N(C(C)C)P1(=O)C(=O)/C=C/c1ccccc1
[1]
  TGI: > 100 µM
[2]
  TGI: 4.14 µM
[3]
  TGI: 7.33 µM
[4]
  TGI: 15.2 µM
[5]
  TGI: 3.36 µM
[7]
  TGI: 6.53 µM
[8]
  TGI: 8.87 µM
[9]
  TGI: 2.33 µM
[10]
  TGI: 3.74 µM
[11]
  TGI: 16.1 µM
[12]
  TGI: 24.6 µM
[13]
  TGI: 13.7 µM
[15]
  TGI: 8.17 µM
[17]
  TGI: 6.42 µM
[16]
  TGI: 4.94 µM

## O=C(O)c1ccc(NNC(=O)c2cccc3c(=O)c4ccccc4[nH]c23)cc1
[1]
  TGI: > 100 µM
[2]
  TGI: > 100 µM
[3]
  TGI: > 100 µM
[4]
  TGI: > 100 µM
[5]
  TGI: > 100 µM
[6]
  TGI: > 100 µM
[7]
  TGI: > 100 µM
[8]
  TGI: > 100 µM
[9]
  TGI: > 100 µM
[10]
  TGI: > 100 µM
[11]
  TGI: > 100 µM
[12]
  TGI: > 100 µM
[13]
  TGI: > 100 µM
[14]
  TGI: > 100 µM
[15]
  TGI: > 100 µM
[17]
  TGI: > 100 µM
[16]
  TGI: > 100 µM

## COc1ccc(N=CN(C)C)c(C)c1
[1]
  TGI: > 100 µM
[2]
  TGI: > 100 µM
[3]
  TGI: > 100 µM
[4]
  TGI: 31 µM
[5]
  TGI: > 100 µM
[6]
  TGI: 82.8 µM
[7]
  TGI: 36.3 µM
[8]
  TGI: 85.6 µM
[9]
  TGI: 54 µM
[10]
  TGI: 93.3 µM
[11]
  TGI: 23.8 µM
[12]
  TGI: 64.5 µM
[13]
  TGI: 45.4 µM
[14]
  TGI: 63.9 µM
[15]
  TGI: 30.4 µM
[17]
  TGI: 7.23 µM
[16]
  TGI: 19.8 µM

## O=c1c2cc(S(=O)(=O)Nc3c(Cl)cccc3Cl)ccc2ncn1NS(=O)(=O)c1ccc2ccccc2c1
[1]
  TGI: > 62.5 µM
[2]
  TGI: > 62.5 µM
[3]
  TGI: > 62.5 µM
[4]
  TGI: > 62.5 µM
[5]
  TGI: > 62.5 µM
[6]
  TGI: > 62.5 µM
[7]
  TGI: > 62.5 µM
[8]
  TGI: > 62.5 µM
[9]
  TGI: > 62.5 µM
[10]
  TGI: > 62.5 µM
[11]
  TGI: > 62.5 µM
[12]
  TGI: 35.1 µM
[13]
  TGI: > 62.5 µM
[14]
  TGI: > 62.5 µM
[15]
  TGI: > 62.5 µM
[17]
  TGI: > 62.5 µM
[16]
  TGI: > 62.5 µM

## COC(=O)[C@@H]1OC(C)(c2ccccc2)O[C@H]1C(=O)OC
[1]
  TGI: > 100 µM
[2]
  TGI: > 100 µM
[3]
  TGI: > 100 µM
[4]
  TGI: > 100 µM
[5]
  TGI: > 100 µM
[6]
  TGI: > 100 µM
[7]
  TGI: > 100 µM
[8]
  TGI: > 100 µM
[9]
  TGI: > 100 µM
[10]
  TGI: > 100 µM
[11]
  TGI: > 100 µM
[12]
  TGI: > 100 µM
[13]
  TGI: > 100 µM
[14]
  TGI: > 100 µM
[15]
  TGI: > 100 µM
[17]
  TGI: > 100 µM
[16]
  TGI: > 100 µM

## O=C(c1cccs1)N(Cc1cccnc1)C(=S)N(Cc1cccnc1)C(=O)c1cccs1
[1]
  TGI: > 100 µM
[2]
  TGI: > 100 µM
[3]
  TGI: > 100 µM
[4]
  TGI: > 100 µM
[5]
  TGI: 34.3 µM
[6]
  TGI: > 100 µM
[7]
  TGI: > 100 µM
[8]
  TGI: > 100 µM
[9]
  TGI: > 100 µM
[10]
  TGI: > 100 µM
[11]
  TGI: > 100 µM
[12]
  TGI: > 100 µM
[13]
  TGI: > 100 µM
[14]
  TGI: > 100 µM
[15]
  TGI: > 100 µM
[17]
  TGI: > 100 µM
[16]
  TGI: > 100 µM

## c1cc(C[S+]2CCCC2)sc1C[S+]1CCCC1
[1]
  TGI: > 100 µM
[2]
  TGI: > 100 µM
[3]
  TGI: > 100 µM
[4]
  TGI: > 100 µM
[5]
  TGI: > 100 µM
[6]
  TGI: > 100 µM
[7]
  TGI: > 100 µM
[9]
  TGI: > 100 µM
[10]
  TGI: > 100 µM
[11]
  TGI: > 100 µM
[12]
  TGI: > 100 µM
[13]
  TGI: > 100 µM
[14]
  TGI: > 100 µM
[17]
  TGI: > 100 µM
[16]
  TGI: > 100 µM

## O=C1COCCN1C(=O)c1ccccc1Cl
[1]
  TGI: > 100 µM
[2]
  TGI: > 100 µM
[3]
  TGI: > 100 µM
[4]
  TGI: > 100 µM
[5]
  TGI: > 100 µM
[7]
  TGI: > 100 µM
[8]
  TGI: > 100 µM
[9]
  TGI: > 100 µM
[10]
  TGI: > 100 µM
[12]
  TGI: > 100 µM
[13]
  TGI: > 100 µM
[14]
  TGI: > 100 µM
[17]
  TGI: > 100 µM
[16]
  TGI: > 100 µM

## CCn1c2ccccc2c2cc(NC(=O)c3c(NCCNCCO)nc(=O)[nH]c3C)ccc21
[1]
  TGI: > 100 µM
[2]
  TGI: > 100 µM
[3]
  TGI: > 100 µM
[4]
  TGI: > 100 µM
[5]
  TGI: > 100 µM
[6]
  TGI: > 100 µM
[7]
  TGI: > 100 µM
[8]
  TGI: > 100 µM
[9]
  TGI: > 100 µM
[10]
  TGI: > 100 µM
[11]
  TGI: > 100 µM
[12]
  TGI: > 100 µM
[13]
  TGI: > 100 µM
[14]
  TGI: > 100 µM
[17]
  TGI: > 100 µM
[16]
  TGI: > 100 µM

## CC[C@H]1C=CCC[C@@]2(C[C@@H]3CC[C@H]4[C@H](C(=O)OCCCCCCCCCCCCCCCC(=O)N(CCCN)C[C@@H](O)CCN)[C@]5(CCC[C@@H](C)O5)NC(=[N+]34)N2)O1
[1]
  TGI: 1.05 µM
[2]
  TGI: 2.18 µM
[3]
  TGI: 3.46 µM
[4]
  TGI: 2.06 µM
[5]
  TGI: 1.86 µM
[6]
  TGI: 3.28 µM
[7]
  TGI: 1.45 µM
[8]
  TGI: 3.98 µM
[9]
  TGI: 0.806 µM
[10]
  TGI: 1.2 µM
[11]
  TGI: 1.29 µM
[12]
  TGI: 3.32 µM
[13]
  TGI: 2.69 µM
[15]
  TGI: 2.06 µM
[17]
  TGI: 3.21 µM
[16]
  TGI: 4.26 µM

## COC(=O)[C@H](COC(=O)/C=C/c1ccc(OC(C)=O)c(OC(C)=O)c1)NC(=O)/C=C/c1ccc(OC(C)=O)c(OC(C)=O)c1
[1]
  TGI: > 100 µM
[2]
  TGI: 70.6 µM
[4]
  TGI: 31.2 µM
[5]
  TGI: 32.1 µM
[6]
  TGI: 54.3 µM
[7]
  TGI: 49.3 µM
[8]
  TGI: 94 µM
[9]
  TGI: 20.7 µM
[10]
  TGI: 45.5 µM
[11]
  TGI: > 100 µM
[12]
  TGI: 56.7 µM
[13]
  TGI: 34.3 µM
[14]
  TGI: 30.1 µM
[15]
  TGI: 35.2 µM
[17]
  TGI: 47.6 µM
[16]
  TGI: 49.7 µM

## CCN(CC)C(=S)SS(=O)(=O)c1ccc(NC(C)=O)cc1
[1]
  TGI: > 100 µM
[2]
  TGI: > 100 µM
[3]
  TGI: > 70.2 µM
[4]
  TGI: > 100 µM
[5]
  TGI: 36.5 µM
[6]
  TGI: > 100 µM
[7]
  TGI: 51.3 µM
[8]
  TGI: 39.2 µM
[9]
  TGI: 31.6 µM
[10]
  TGI: 33.4 µM
[12]
  TGI: > 100 µM
[13]
  TGI: 42 µM
[14]
  TGI: 97.2 µM
[15]
  TGI: > 100 µM
[17]
  TGI: 62.3 µM
[16]
  TGI: > 100 µM
